From patent publication US10294202B2, “Pyrrolidinones as herbicides” (FMC Corporation, priority 2013, dated 2019)

Legend:
barnyardgrass [1] = assay: Test A pre-/postemergence herbicide test; format: in vivo, Echinochloa crus-galli
Summary of the method: (§1)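 Seeds sown in loam soil/sand blend received a preemergence directed soil spray of test chemical in non-phytotoxic solvent with surfactant; postemergence plants (2–10 cm, one- to two-leaf stage) were sprayed with the same formulation. After about 10 days in greenhouse, injury was rated visually versus untreated controls, 0 (no effect) to 100 (complete control).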

kochia = assay: Test A pre-/postemergence herbicide test; format: in vivo, Kochia scoparia
Summary of the method: as §1

ragweed = assay: Test A pre-/postemergence herbicide test; format: in vivo, Ambrosia elatior
Summary of the method: as §1

ryegrass, Italian = assay: Test A pre-/postemergence herbicide test; format: in vivo, Lolium multiflorum
Summary of the method: as §1

giant foxtail = assay: Test A pre-/postemergence herbicide test; format: in vivo, Setaria faberii
Summary of the method: as §1

pigweed = assay: Test A pre-/postemergence herbicide test; format: in vivo, Amaranthus retroflexus
Summary of the method: as §1

wheat = assay: Test A pre-/postemergence herbicide test; format: in vivo, Triticum aestivum; conditions: Postemergence
Summary of the method: as §1

corn = assay: Test A pre-/postemergence herbicide test; format: in vivo, Zea mays; conditions: Postemergence
Summary of the method: as §1

blackgrass = assay: Test A postemergence herbicide test; format: in vivo, Alopecurus myosuroides
Summary of the method: (§2)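 Young potted plants in a loam–sand mix, one- to two-leaf stage and 2–10 cm tall, receive the test chemical postemergence and stay in a greenhouse for approximately 10 days. Injury is then judged by eye against untreated plants, scored 0 (none) to 100 (complete control).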

galium = assay: Test A postemergence herbicide test; format: in vivo, Galium aparine
Summary of the method: as §2

rice = assay: Test B flooded paddy test; format: in vivo, Oryza sativa; conditions: 500 g ai/ha, Flood; scale of 0 to 100 where 0 is no effect and 100 is complete control
Summary of the method: (§3)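 Treatment was made at the 2-leaf stage by dosing the standing floodwater, kept 3 cm above soil level for the whole test. Greenhouse exposure lasted 13 to 15 days. Response is a visual percent rating relative to controls, where a dash indicates no test result.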

sedge, umbrella = assay: Test B flooded paddy test; format: in vivo, Cyperus difformis; conditions: 500 g ai/ha, Flood; scale of 0 to 100 where 0 is no effect and 100 is complete control
Summary of the method: as §3

ducksalad = assay: Test B flooded paddy test; format: in vivo, Heteranthera limosa; conditions: 500 g ai/ha, Flood; scale of 0 to 100 where 0 is no effect and 100 is complete control
Summary of the method: as §3

barnyardgrass [2] = assay: Test B flooded paddy test; format: in vivo, Echinochloa crus-galli; conditions: 500 g ai/ha, Flood; scale of 0 to 100 where 0 is no effect and 100 is complete control
Summary of the method: as §3

[3] = Postemergence, 125 g ai/ha, 0 to 100 scale, 0 is no effect, 100 is complete control
[4] = Postemergence, 500 g ai/ha, 0 to 100 scale (0 no effect, 100 complete control)
[5] = Preemergence, 125 g ai/ha, 0 to 100 scale where 0 is no effect and 100 is complete control
[6] = preemergence, 500 g ai/ha, 0 to 100 scale, 0 is no effect and 100 is complete control
[7] = Postemergence, 125 g ai/ha, visual rating on 0 to 100 scale (0 no effect, 100 complete control), approx. 10 days
[8] = 125 g ai/ha, visual rating on 0 to 100 scale (0 no effect, 100 complete control), approx. 10 days
[9] = 500 g ai/ha, 0 to 100 scale (0 no effect, 100 complete control)
[10] = 125 g ai/ha, 0 to 100 scale, 0 is no effect, 100 is complete control
[11] = Preemergence, 500 g ai/ha, visual rating on 0 to 100 scale (0 no effect, 100 complete control)

SMILES	Plant response rating, Barnyardgrass (barnyardgrass [1]; [4])	Plant response rating, Barnyardgrass (barnyardgrass [1]; [5])	Plant response rating, Barnyardgrass (barnyardgrass [1]; [6])	Plant response rating, Kochia (kochia; [4])	Plant response rating, Kochia (kochia; [5])	Plant response rating, Kochia (kochia; [6])	Plant response rating, Ragweed (ragweed; [7])	Plant response rating, Ragweed (ragweed; [4])	Plant response rating, Ryegrass, Italian (ryegrass, Italian; [7])	Plant response rating, Ryegrass, Italian (ryegrass, Italian; [4])	Plant response rating, Ryegrass, Italian (ryegrass, Italian; [5])	Plant response rating, Foxtail, Giant (giant foxtail; [4])	Plant response rating, Foxtail, Giant (giant foxtail; [5])	Plant response rating, Foxtail, Giant (giant foxtail; [6])	Plant response rating, Pigweed (pigweed; [7])	Plant response rating, Pigweed (pigweed; [4])	Plant response rating, Pigweed (pigweed; [5])	Plant response rating, Pigweed (pigweed; [6])	Plant response rating, Wheat (wheat; [8])	Plant response rating, Wheat (wheat; [9])	further results
O=C1NCC(c2cc3ccccc3o2)C1C(=O)Nc1cccc(F)c1F (stereo not shown) [Compound 282]	90	60	90	0	0	50	0	0	0	0	0	30	20	70	0	0	0	0	0	0	Plant response rating, Barnyardgrass (barnyardgrass [1]; [3]): 50; Plant response rating, Kochia (kochia; [3]): 0; Plant response rating, Ragweed (ragweed; [5]): 0; Plant response rating, Ragweed (ragweed; [6]): 0; Plant response rating, Ryegrass, Italian (ryegrass, Italian; [6]): 0; Plant response rating, Foxtail, Giant (giant foxtail; [3]): 0; Plant response rating, Corn (corn; [10]): 0; Plant response rating, Corn (corn; [9]): 0; Plant response rating, Blackgrass (blackgrass; [10]): 0; Plant response rating, Blackgrass (blackgrass; [9]): 20; Plant response rating, Galium (galium; [10]): 0; Plant response rating, Galium (galium; [9]): 40; Plant response rating, Rice (rice): 0; Plant response rating, Sedge, Umbrella (sedge, umbrella): 30; Plant response rating, Ducksalad (ducksalad): 95; Plant response rating, Barnyardgrass (barnyardgrass [2]): 30
O=C1NCC(c2cc3ccccc3o2)C1C(=O)Nc1ccccc1C(F)(F)F (stereo not shown) [Compound 283]	60	0	0	0	0	0	0	0	0	0	0	10	0	0	0	0	0	0	0	0	Plant response rating, Barnyardgrass (barnyardgrass [1]; [3]): 0; Plant response rating, Kochia (kochia; [3]): 0; Plant response rating, Ragweed (ragweed; [5]): 0; Plant response rating, Ragweed (ragweed; [6]): 0; Ryegrass, Italian plant response rating (ryegrass, Italian; [11]): 0; Plant response rating, Foxtail, Giant (giant foxtail; [3]): 0; Plant response rating, Corn (corn; [10]): 0; Plant response rating, Corn (corn; [9]): 0; Plant response rating, Blackgrass (blackgrass; [10]): 0; Plant response rating, Blackgrass (blackgrass; [9]): 0; Plant response rating, Galium (galium; [10]): 0; Plant response rating, Galium (galium; [9]): 0; Plant response rating, Rice (rice): 0; Plant response rating, Sedge, Umbrella (sedge, umbrella): 0; Plant response rating, Ducksalad (ducksalad): 85; Plant response rating, Barnyardgrass (barnyardgrass [2]): 20
CSc1cccc(C2CNC(=O)C2C(=O)Nc2ccc(F)cc2F)c1 (stereo not shown) [Compound 288]	80	30	70	20	30	50	0	0	0	0	0	30	30	90	0	0	0	0	0	0	Plant response rating, Barnyardgrass (barnyardgrass [1]; [7]): 20; Plant response rating, Kochia (kochia; [7]): 0; Plant response rating, Ragweed (ragweed; [5]): 0; Plant response rating, Ragweed (ragweed; [6]): 0; Ryegrass, Italian plant response rating (ryegrass, Italian; [11]): 20; Plant response rating, Foxtail, Giant (giant foxtail; [7]): 20; Plant response rating, Corn (corn; [8]): 0; Plant response rating, Corn (corn; [9]): 0; Plant response rating, Blackgrass (blackgrass; [8]): 0; Plant response rating, Blackgrass (blackgrass; [9]): 0; Plant response rating, Galium (galium; [8]): 0; Plant response rating, Galium (galium; [9]): 0; Plant response rating, Rice (rice): 0; Plant response rating, Sedge, Umbrella (sedge, umbrella): 0; Plant response rating, Ducksalad (ducksalad): 65; Plant response rating, Barnyardgrass (barnyardgrass [2]): 20
O=C1NCC(c2ccc(Cl)s2)C1C(=O)Nc1ccccc1C(F)(F)F (stereo not shown) [Compound 293]	70	20	70	0	0	0	0	0	0	0	0	70	80	90	0	0	0	0	0	0	Plant response rating, Barnyardgrass (barnyardgrass [1]; [7]): 50; Plant response rating, Kochia (kochia; [7]): 0; Ryegrass, Italian plant response rating (ryegrass, Italian; [11]): 0; Plant response rating, Foxtail, Giant (giant foxtail; [7]): 50; Plant response rating, Corn (corn; [8]): 0; Plant response rating, Corn (corn; [9]): 0; Plant response rating, Blackgrass (blackgrass; [8]): 0; Plant response rating, Blackgrass (blackgrass; [9]): 10; Plant response rating, Galium (galium; [8]): 20; Plant response rating, Galium (galium; [9]): 60; Plant response rating, Rice (rice): 0; Plant response rating, Sedge, Umbrella (sedge, umbrella): 0; Plant response rating, Ducksalad (ducksalad): 95; Plant response rating, Barnyardgrass (barnyardgrass [2]): 35
O=C1NCC(c2ccc(Cl)s2)C1C(=O)Nc1cccc(F)c1F (stereo not shown) [Compound 294]	90	70	90	50	40	90	0	20	0	20	0	80	70	90	0	0	0	20	20	20	Plant response rating, Barnyardgrass (barnyardgrass [1]; [7]): 60; Plant response rating, Kochia (kochia; [7]): 30; Plant response rating, Ragweed (ragweed; [5]): 0; Plant response rating, Ragweed (ragweed; [6]): 0; Ryegrass, Italian plant response rating (ryegrass, Italian; [11]): 30; Plant response rating, Foxtail, Giant (giant foxtail; [7]): 30; Plant response rating, Corn (corn; [8]): 0; Plant response rating, Corn (corn; [9]): 0; Plant response rating, Blackgrass (blackgrass; [8]): 20; Plant response rating, Blackgrass (blackgrass; [9]): 30; Plant response rating, Galium (galium; [8]): 0; Plant response rating, Galium (galium; [9]): 30; Plant response rating, Rice (rice): 0; Plant response rating, Sedge, Umbrella (sedge, umbrella): 0; Plant response rating, Ducksalad (ducksalad): 98; Plant response rating, Barnyardgrass (barnyardgrass [2]): 20
